What was measured:
Cbl-b [1] = target: T1, Cbl-b (Homo sapiens, UniProt Q13191); test: Cbl-b Degradation Method A (FACS, anti-Cbl-b antibody staining); format: cell-based; details: for DC50: half maximal degradation, read-out: Cbl-b Degredation Method A IC50; for Dmax: Jurkat, read-out: Cbl-b Degredation Method A Dmax (%)
T1 construct: Cbl-b-HiBit KI Jurkat Cells were purchased from Promega; host or cells: Cbl-b-HiBiT knock-in Jurkat cells
How it was run: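 Cbl-b-HiBit KI Jurkat cells treated with compound for at least 20 h at 37 °C, then fixed, permeabilized and stained with anti-Cbl-b antibody plus anti-rabbit AF488 secondary. Cbl-b levels read by FACS; DC50 and Dmax (percent of control) derived.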

Cbl-b [2] = target: T1, Cbl-b; test: Cbl-b Degradation Method B (Nano-Glo HiBiT lytic detection); format: cell-based; details: Cbl-b-HiBit KI Jurkat Cells, incubated at least 6-24 hours; for DC50: half maximal degradation, read-out: Cbl-b Degredation Method B IC50; for Dmax / Cbl-b Degredation Method B Dmax (%): maximum degradation observed; for Dmax: read-out: Cbl-b Degredation Method B Dmax (%)
How it was run: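 Cbl-b-HiBiT knock-in Jurkat cells (20,000/well) were treated after ~24 h plating with an 11-point 1:3 series for 6-24 h at 37° C. Remaining Cbl-b measured by Nano-Glo HiBiT lytic luminescence. DC50 and Dmax expressed as % of control.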

[3] = Cbl-b-HiBit KI Jurkat Cells, incubated at least 20 hours
[4] = Cbl-b-HiBit KI Jurkat Cells, incubated at least 20 hours, maximum degradation observed

T1 sequence (Q13191 whole entry): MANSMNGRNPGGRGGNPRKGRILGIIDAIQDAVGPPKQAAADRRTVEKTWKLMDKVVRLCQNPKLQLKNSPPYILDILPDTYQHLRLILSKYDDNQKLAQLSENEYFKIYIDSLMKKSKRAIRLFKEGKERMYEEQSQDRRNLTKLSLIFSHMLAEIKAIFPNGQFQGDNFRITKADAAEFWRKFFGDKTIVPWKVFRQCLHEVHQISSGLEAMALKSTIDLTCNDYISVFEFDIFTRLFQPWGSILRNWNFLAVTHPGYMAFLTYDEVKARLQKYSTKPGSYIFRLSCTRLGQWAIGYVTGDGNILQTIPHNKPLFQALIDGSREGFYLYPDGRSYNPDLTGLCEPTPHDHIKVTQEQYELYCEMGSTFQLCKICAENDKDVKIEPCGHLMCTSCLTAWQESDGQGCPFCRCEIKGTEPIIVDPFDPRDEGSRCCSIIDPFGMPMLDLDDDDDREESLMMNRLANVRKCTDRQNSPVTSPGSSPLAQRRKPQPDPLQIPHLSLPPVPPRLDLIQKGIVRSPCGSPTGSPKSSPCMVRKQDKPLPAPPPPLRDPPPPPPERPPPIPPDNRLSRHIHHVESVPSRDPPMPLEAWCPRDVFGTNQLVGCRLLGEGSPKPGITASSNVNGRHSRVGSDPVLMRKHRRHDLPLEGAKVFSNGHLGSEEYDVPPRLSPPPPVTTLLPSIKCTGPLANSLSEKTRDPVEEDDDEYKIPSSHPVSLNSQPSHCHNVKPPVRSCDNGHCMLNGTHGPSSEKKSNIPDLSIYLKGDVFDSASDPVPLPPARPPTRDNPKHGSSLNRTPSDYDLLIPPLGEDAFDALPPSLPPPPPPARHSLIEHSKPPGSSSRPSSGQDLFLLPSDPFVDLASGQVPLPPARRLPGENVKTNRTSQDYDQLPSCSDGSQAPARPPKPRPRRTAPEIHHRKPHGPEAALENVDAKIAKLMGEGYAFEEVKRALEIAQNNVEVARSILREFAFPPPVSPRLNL

Compound | DC50 (Cbl-b [1]; [3]) | Dmax (Cbl-b [1]; [4]) | DC50 (Cbl-b [2]) | Dmax (Cbl-b [2]) | Cbl-b Degredation Method B Dmax (%) (Cbl-b [2]) | Dmax (Cbl-b [1])
Cn1cnnc1CC1(c2cccc(N3Cc4c(cc(N5CC6(CCN(CC7CCN(c8ccc9c(c8)CN(C8CCC(=O)NC8=O)C9=O)CC7)CC6)C5)cc4C(F)(F)F)C3=O)c2)COC1 (centres unmarked) [Example 117, 3-{5-[4-({2-[2-(3-{3-[(4-methyl-4H-1,2,4-triazol-3-yl)methyl]oxetan-3-yl}phenyl)-3-oxo-7-(trifluoromethyl)-2,3-dihydro-1H-isoindol-5-yl]-2,7-diazaspiro[3.5]nonan-7-yl}methyl)piperidin-1-yl]-1-oxo-2,3-dihydro-1H-isoindol-2-yl}piperidine-2,6-dione] | < 5 nM | 35 to 70% | < 5 nM | 35 to 70% | – | –
CC1CC(N2CCC(COCCOc3ccc4c(c3)C(=O)N(C3CCC(=O)NC3=O)C4=O)CC2)CN(Cc2cc3c(c(C(F)(F)F)c2)CN(c2cccc(C4(Cc5nncn5C)COC4)c2)C3=O)C1 (centres unmarked) [Example 102, 2-(2,6-dioxopiperidin-3-yl)-5-{2-[(5′-methyl-1′-{[2-(3-{3-[(4-methyl-4H-1,2,4-triazol-3-yl)methyl]oxetan-3-yl}phenyl)-3-oxo-7-(trifluoromethyl)-2,3-dihydro-1H-isoindol-5-yl]methyl}-[1,3′-bipiperidin]-4-yl)methoxy]ethoxy}-2,3-dihydro-1H-isoindole-1,3-dione] | > 500 nM | – | > 500 nM | – | – | –
Cn1cnnc1CC1(c2cccc(N3Cc4c(cc(CN5CCC(CC6CN(c7ccc8c(c7)C(=O)N(C7CCC(=O)NC7=O)C8=O)C6)CC5)cc4C(F)(F)F)C3=O)c2)COC1 (centres unmarked) [Example 79, 2-(2,6-dioxopiperidin-3-yl)-5-{3-[(1-{[2-(3-{3-[(4-methyl-4H-1,2,4-triazol-3-yl)methyl]oxetan-3-yl}phenyl)-3-oxo-7-(trifluoromethyl)-2,3-dihydro-1H-isoindol-5-yl]methyl}piperidin-4-yl)methyl]azetidin-1-yl}-2,3-dihydro-1H-isoindole-1,3-dione] | > 500 nM | – | > 500 nM | – | – | –
Cn1cnnc1CC1(c2cccc(N3Cc4c(cc(CN5CCN(C[C@H]6CC[C@H](OC7CCN(c8ccc9c(c8)CC(=O)N9C8CCC(=O)NC8=O)CC7)CC6)CC5(C)C)cc4C(F)(F)F)C3=O)c2)CC(C#N)C1 (some centres unmarked) [Example 316, (1r**,3r**)-3-(3-{6-[(2,2-dimethyl-4-{[(1r*,4r*)-4-({1-[1-(2,6-dioxopiperidin-3-yl)-2-oxo-2,3-dihydro-1H-indol-5-yl]piperidin-4-yl}oxy)cyclohexyl]methyl}piperazin-1-yl)methyl]-1-oxo-4-(trifluoromethyl)-2,3-dihydro-1H-isoindol-2-yl}phenyl)-3-[(4-methyl-4H-1,2,4-triazol-3-yl)methyl]cyclobutane-1-carbonitrile] | 50 to 500 nM | > 70% | < 5 nM | – | C (C ≤ 35) | –
CC1c2nc(N3CCC(CN4CCN(CC5CCN(Cc6cc7c(c(C(F)(F)F)c6)CN(c6cccc([C@]8(Cc9nncn9C)C[C@@H](C#N)C8)c6)C7=O)C(C)(C)C5)CC4)CC3)ccc2C(=O)N1C1CCC(=O)NC1=O (some centres unmarked) [Example 277, (1r, 3r)-3-(3-{6-[(4-{[4-({1-[6-(2,6-dioxopiperidin-3-yl)-7-methyl-5-oxo-5H, 6H, 7H-pyrrolo [3,4-b]pyridin-2-yl]piperidin-4-yl}methyl)piperazin-1-yl]methyl}-2,2-dimethylpiperidin-1-yl)methyl]-1-oxo-4-(trifluoromethyl)-2,3-dihydro-1H-isoindol-2-yl}phenyl)-3-[(4-methyl-4H-1,2,4-triazol-3-yl)methyl]cyclobutane-1-carbonitrile] | 5 to 50 nM | – | < 5 nM | – | C (C ≤ 35) | < 35%
C[C@@H]1c2nc(N3CCC(O[C@H]4CC[C@H](CN5CCN(Cc6cc7c(c(C(F)(F)F)c6)CN(c6cccc(C8(Cc9nncn9C)CC(C#N)C8)c6)C7=O)C6(CC6)C5)CC4)CC3)ccc2C(=O)N1C1CCC(=O)NC1=O (single isomer, unassigned) [Example 304, (1r***,3r***)-3-[(4-methyl-4H-1,2,4-triazol-3-yl)methyl]-3-(3-{1-oxo-6-[(7-{[(1r**,4r**)-4-({1-[(7R*)-6-(2,6-dioxopiperidin-3-yl)-7-methyl-5-oxo-5H,6H,7H-pyrrolo[3,4-b]pyridin-2-yl]piperidin-4-yl}oxy)cyclohexyl]methyl}-4,7-diazaspiro[2.5]octan-4-yl)methyl]-4-(trifluoromethyl)-2,3-dihydro-1H-isoindol-2-yl}phenyl)cyclobutane-1-carbonitrile] | 50 to 500 nM | 35 to 70% | < 5 nM | – | C (C ≤ 35) | –
Cn1cnnc1CC1(c2cccc(N3Cc4c(cc(N5CCC6(CC5)CN(CC5CCN(c7ccc8c(c7)C(=O)N(C7CCC(=O)NC7=O)C8=O)CC5)C6)cc4C(F)(F)F)C3=O)c2)COC1 (centres unmarked) [Example 135, 2-(2,6-dioxopiperidin-3-yl)-5-[4-({7-[2-(3-{3-[(4-methyl-4H-1,2,4-triazol-3-yl)methyl]oxetan-3-yl}phenyl)-3-oxo-7-(trifluoromethyl)-2,3-dihydro-1H-isoindol-5-yl]-2,7-diazaspiro[3.5]nonan-2-yl}methyl)piperidin-1-yl]-2,3-dihydro-1H-isoindole-1,3-dione] | 50 to 500 nM | – | > 500 nM | – | – | –
Cn1cnnc1C1(c2cccc(N3Cc4c(cc(CN5CCC[C@H](CN6CCN(C[C@H]7CC[C@@H](OC8CCN(c9ccc%10c(c9F)CN(C9CCC(=O)NC9=O)C%10=O)CC8)CC7)CC6)C5)cc4C(F)(F)F)C3=O)c2)COC1 (stereo partly drawn) [Example 161, 3-[4-fluoro-1-oxo-5-(4-{[(1r,4r)-4-[(4-{[(3S)-1-[(2-{3-[3-(4-methyl-4H-1,2,4-triazol-3-yl)oxetan-3-yl]phenyl}-3-oxo-7-(trifluoromethyl)-2,3-dihydro-1H-isoindol-5-yl)methyl]piperidin-3-yl]methyl}piperazin-1-yl)methyl]cyclohexyl]oxy}piperidin-1-yl)-2,3-dihydro-1H-isoindol-2-yl]piperidine-2,6-dione] | 5 to 50 nM | < 35% | > 500 nM | – | – | –
Cn1cnnc1CC1(c2cccc(NC(=O)c3cc(N4CC5(CCN(CC6CCN(c7ccc8c(c7)C(=O)N(C7CCC(=O)NC7=O)C8=O)CC6)CC5)C4)nc(C4CC4)n3)c2)COC1 (centres unmarked) [Example 18, 2-cyclopropyl-6-[7-[[1-[2-(2,6-dioxo-3-piperidyl)-1,3-dioxo-isoindolin-5-yl]-4-piperidyl]methyl]-2,7-diazaspiro[3.5]nonan-2-yl]-N-[3-[3-[(4-methyl-1,2,4-triazol-3-yl)methyl]oxetan-3-yl]phenyl]pyrimidine-4-carboxamide] | 50 to 500 nM | < 35% | > 500 nM | – | – | –
Cn1cnnc1CC1(c2cccc(N3Cc4c(cc(CN5CCC[C@H](CN6CCC(CN7CCC(CN8CCN(c9ccc%10c(c9F)CN(C9CCC(=O)NC9=O)C%10=O)CC8)CC7)CC6)C5)cc4C(F)(F)F)C3=O)c2)COC1 (stereo partly drawn) [Example 74, 3-{4-fluoro-5-[4-({1-[(1-{[(3R)-1-{[2-(3-{3-[(4-methyl-4H-1,2,4-triazol-3-yl)methyl]oxetan-3-yl}phenyl)-3-oxo-7-(trifluoromethyl)-2,3-dihydro-1H-isoindol-5-yl]methyl}piperidin-3-yl]methyl}piperidin-4-yl)methyl]piperidin-4-yl}methyl)piperazin-1-yl]-1-oxo-2,3-dihydro-1H-isoindol-2-yl}piperidine-2,6-dione] | 5 to 50 nM | > 70% | < 5 nM | > 70% | – | –
